Test results: ChEMBL document CHEMBL4765259, “Synthesis and biological evaluation of novel shikonin-benzo[b]furan derivatives as tubulin polymerization inhibitors targeting the colchicine binding site” (Eur J Med Chem, 2020)
Activity calls are given as the source filed them. The calls are words filed in the database; no cut-off is given here.

Key:
K562 [1] = experiment: cells; conditions: Homo sapiens, K562, 48 h
Description: Antiproliferative activity against human K562 cells incubated for 48 hrs by MTT assay

K562 [2] = experiment: Antiproliferative activity against drug resistant human K562 cells incubated for 48 hrs by MTT assay; assay type: functional, cell-based; conditions: K562, 48 h
HT-29 [3] = experiment: Induction of apoptosis in human HT-29 cells assessed as necrotic cells at […] measured after 24 hrs by Annexin V-FITC/propidium iodide staining based flow cytometry (reference value: 0.1 %); assay type: functional; conditions: dose 0.25 µM
[4] = Antiproliferative activity against human LO2 cells incubated for 48 hrs by MTT assay; assay type: cell-based, L02
HT-29 [5] = experiment: Induction of microtubule disruption in human HT-29 cells at 0.5 uM incubated for 24 hrs by DAPI staining based confocal fluorescence microscopic analysis; assay type: cell-based
MCF7 [6] = experiment: cells; conditions: Homo sapiens, MCF7, 48 h
Description: Antiproliferative activity against drug-resistant human MCF7 cells incubated for 48 hrs by MTT assay

HT-29 [7] = experiment: Induction of apoptosis in human HT-29 cells assessed as early apoptotic cells at 0.5 uM measured after 24 hrs by Annexin V-FITC/propidium iodide staining based flow cytometry (reference value: 1.6 %); assay type: functional
HT-29 [8] = experiment: Antiproliferative activity against human HT29 cells incubated for 48 hrs by MTT assay; assay type: functional, cell-based; conditions: HT-29, 48 h
HT-29 [9] = experiment: Induction of apoptosis in human HT-29 cells assessed as late apoptotic cells at 1 uM measured after 24 hrs by Annexin V-FITC/propidium iodide staining based flow cytometry (reference value: 0.0 %); assay type: functional
[10] = Antiproliferative activity against human HEK293T cells incubated for 48 hrs by MTT assay; assay type: cell-based, HEK-293T
HT-29 [11] = experiment: Induction of apoptosis in human HT-29 cells assessed as early apoptotic cells at […] measured after 24 hrs by Annexin V-FITC/propidium iodide staining based flow cytometry (reference value: 1.6 %); assay type: functional; conditions: dose 0.25 µM
MDA-MB-231 = experiment: cells; conditions: Homo sapiens, MDA-MB-231, 48 h
HT-29 [12] = experiment: Induction of apoptosis in human HT-29 cells assessed as viable cells at […] measured after 24 hrs by Annexin V-FITC/propidium iodide staining based flow cytometry (reference value: 98.3 %); assay type: functional; conditions: dose 0.25 µM, read-out: Activity
HT-29 [13] = experiment: Cell cycle arrest in human HT29 cells assessed as cell accumulation at S phase at 0.5 uM incubated for 24 hrs by propidium iodide staining based flow cytometry (reference value: […] %); assay type: functional
HT-29 [14] = experiment: Induction of apoptosis in human HT-29 cells assessed as early apoptotic cells at 1 uM measured after 24 hrs by Annexin V-FITC/propidium iodide staining based flow cytometry (reference value: 1.6 %); assay type: functional
HT-29 [15] = experiment: Induction of apoptosis in human HT-29 cells assessed as viable cells at 1 uM measured after 24 hrs by Annexin V-FITC/propidium iodide staining based flow cytometry (reference value: 98.3 %); assay type: functional; conditions: read-out: Activity
HT-29 [16] = experiment: Cell cycle arrest in human HT29 cells assessed as cell accumulation at G2 phase at […] incubated for 24 hrs by propidium iodide staining based flow cytometry (reference value: […]); assay type: functional; conditions: dose 0.25 µM
HT-29 [17] = experiment: Cell cycle arrest in human HT29 cells assessed as cell accumulation at G2 phase at 0.5 uM incubated for 24 hrs by propidium iodide staining based flow cytometry (reference value: […]); assay type: functional
HT-29 [18] = experiment: Cell cycle arrest in human HT29 cells assessed as cell accumulation at G1 phase at […] incubated for 24 hrs by propidium iodide staining based flow cytometry (reference value: 69.19 %); assay type: functional; conditions: dose 0.25 µM
HT-29 [19] = experiment: Induction of apoptosis in human HT-29 cells assessed as necrotic cells at 0.5 uM measured after 24 hrs by Annexin V-FITC/propidium iodide staining based flow cytometry (reference value: 0.1 %); assay type: functional
HepG2 = experiment: Antiproliferative activity against human HepG2 cells incubated for 48 hrs by MTT assay; assay type: functional, cell-based; conditions: HepG2, 48 h
HT-29 [20] = experiment: Cell cycle arrest in human HT29 cells assessed as cell accumulation at G2 phase at 1 uM incubated for 24 hrs by propidium iodide staining based flow cytometry (reference value: […]); assay type: functional
HT-29 [21] = experiment: Induction of apoptosis in human HT-29 cells assessed as late apoptotic cells at […] measured after 24 hrs by Annexin V-FITC/propidium iodide staining based flow cytometry (reference value: 0.0 %); assay type: functional; conditions: dose 0.25 µM
HT-29 [22] = experiment: Induction of apoptosis in human HT-29 cells assessed as viable cells at 0.5 uM measured after 24 hrs by Annexin V-FITC/propidium iodide staining based flow cytometry (reference value: 98.3 %); assay type: functional; conditions: read-out: Activity
HT-29 [23] = experiment: Cell cycle arrest in human HT29 cells assessed as cell accumulation at G1 phase at 1 uM incubated for 24 hrs by propidium iodide staining based flow cytometry (reference value: 69.19 %); assay type: functional
MCF7 [24] = experiment: cells; conditions: Homo sapiens, MCF7, 48 h; remark: listed apart in the source
HT-29 [25] = experiment: Cell cycle arrest in human HT29 cells assessed as cell accumulation at S phase at 1 uM incubated for 24 hrs by propidium iodide staining based flow cytometry (reference value: […] %); assay type: functional
HT-29 [26] = experiment: Cell cycle arrest in human HT29 cells assessed as cell accumulation at S phase at […] incubated for 24 hrs by propidium iodide staining based flow cytometry (reference value: […] %); assay type: functional; conditions: dose 0.25 µM
[27] = Inhibition of tubulin polymerization (unknown origin) measured every 2 mins for 60 mins by spectrophotometric method; set-up: species or system Homo sapiens
A549 = experiment: cells; conditions: Homo sapiens, A549, 48 h
HCT-116 = experiment: cells; conditions: Homo sapiens, HCT-116, 48 h
Description: Antiproliferative activity against human HCT116 cells incubated for 48 hrs by MTT assay

HT-29 [28] = experiment: Induction of apoptosis in human HT-29 cells assessed as late apoptotic cells at 0.5 uM measured after 24 hrs by Annexin V-FITC/propidium iodide staining based flow cytometry (reference value: 0.0 %); assay type: functional
HT-29 [29] = experiment: Cell cycle arrest in human HT29 cells assessed as cell accumulation at G1 phase at 0.5 uM incubated for 24 hrs by propidium iodide staining based flow cytometry (reference value: 69.19 %); assay type: functional
HT-29 [30] = experiment: Induction of apoptosis in human HT-29 cells assessed as necrotic cells at 1 uM measured after 24 hrs by Annexin V-FITC/propidium iodide staining based flow cytometry (reference value: 0.1 %); assay type: functional

## COc1cccc2c1C(=O)c1c(O)c3c(c(O)c1C2=O)C[C@@](O)(C(=O)CO)C[C@@H]3O[C@H]1C[C@H](N)[C@H](O)[C@H](C)O1 [DOXORUBICIN]
K562 [1]
  IC50: 210 nM
K562 [2]
  IC50: 16.3 µM

## COc1cc2c(c(OC)c1OC)-c1ccc(OC)c(=O)cc1[C@@H](NC(C)=O)CC2 [COLCHICINE]
HT-29 [3]
  Activity: 0.3%
[4]
  CC50 at 48 h: 9.18 µM
HT-29 [5]
  Activity: Active
MCF7 [6]
  IC50: 520 nM
HT-29 [7]
  Activity: 12.1%
HT-29 [8]
  IC50: 1810 nM
HT-29 [9]
  Activity: 16.8%
K562 [1]
  IC50: 440 nM
K562 [2]
  IC50: 6.59 µM
[10]
  CC50 at 48 h: 8.43 µM
HT-29 [11]
  Activity: 7.6%
MDA-MB-231
  IC50: 2940 nM
HT-29 [12]
  viability at […]: 87%
HT-29 [13]
  Activity: 54.64%
HT-29 [14]
  Activity: 15.8%
HT-29 [15]
  viability at 1 µM: 67.1%
HT-29 [16]
  Activity: 17.73%
HT-29 [17]
  Activity: 18.25%
HT-29 [18]
  Activity: 57.62%
HT-29 [19]
  Activity: 1.3%
HepG2
  IC50: 1470 nM
HT-29 [20]
  Activity: 40.41%
HT-29 [21]
  Activity: 5.2%
HT-29 [22]
  viability at 0.5 µM: 76.1%
HT-29 [23]
  Activity: 23.93%
MCF7 [24]
  IC50: 110 nM
HT-29 [25]
  Activity: 35.66%
HT-29 [26]
  Activity: 24.65%
[27]
  IC50: 2110 nM
A549
  IC50: 1170 nM
HCT-116
  IC50: 2130 nM
HT-29 [28]
  Activity: 10.5%
HT-29 [29]
  Activity: 27.11%
HT-29 [30]
  Activity: 0.4%

## CC(=O)O[C@H]1C(=O)[C@@]2(C)[C@H]([C@H](OC(=O)c3ccccc3)[C@]3(O)C[C@H](OC(=O)[C@H](O)[C@@H](NC(=O)c4ccccc4)c4ccccc4)C(C)=C1C3(C)C)[C@]1(OC(C)=O)CO[C@@H]1C[C@@H]2O
HT-29 [5]
  Activity: inactive
